# Measured values as given in patent EP4755888A1 (ILAb Co., Ltd., priority 2023, dated 2025).
# Biological target: PD-1/PD-L1 (Homo sapiens, UniProt Q9NZQ7)
# Experiment: TR-FRET PD-1/PD-L1 binding inhibition at the molecular level (free proteins)
# Settings: Tag1-PD-L1 and Tag2-PD-1 proteins, twelve concentrations from 200 nM, 2 hours at room temperature, read-out: FRET assay (IC50)
# Procedure: In order to evaluate the inhibitory activity of the compounds synthesized according to the above Preparation Examples against PD-1/PD-L1 molecules in a free protein state,a TR-FRET (Time-Resolved Fluorescence Energy Transfer) experimetn was performed as described below.
# Specifically, the compounds were prepared in a 96-well plate by serial dilution starting from 200 nM with 1/2 dilutions to obtain a total of twelve concentrations, and 2 µL of each compound solution was added to a 384-well plate. Thereafter, Tag1-PD-L1 protein and Tag2-PD-1 protein were each prepared at a 1x concentration, mixed at a ratio of 1:1, and 8 µL of the mixed solution was added to each well of the 384-well plate containing the compounds. Anti-Tag1 Eu Cryptate reagent and Anti-Tag2 XL665 antibody were each prepared at a 1* concentration, mixed at a ratio of 1:1, and 10 µL of the mixed solution was added to each well of the 384-well plate containing the compounds and proteins, followed by incubation at room temperature for 2 hours. Upon completion of the reaction, fluorescence signals at wavelengths of 620 nm and 665 nm were measured using a microplate reader.
# PD-1/PD-L1, sequence (Q9NZQ7 19-238 limits assumed): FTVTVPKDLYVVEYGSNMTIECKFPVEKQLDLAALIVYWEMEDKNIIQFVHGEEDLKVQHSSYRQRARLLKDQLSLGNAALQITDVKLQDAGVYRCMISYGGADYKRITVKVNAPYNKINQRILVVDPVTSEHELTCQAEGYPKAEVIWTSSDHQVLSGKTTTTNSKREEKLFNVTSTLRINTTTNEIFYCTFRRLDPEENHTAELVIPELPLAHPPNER
row,Structure (SMILES),IC50 [µM]
1,"Cn1c(C(=O)Nc2cccc(-c3cccc(NC(=O)c4cc5n(n4)CCCC5NC(C)(C)C(=O)O)c3Cl)c2Cl)nc2c1CCN(CCC13CCC(C(=O)O)(CC1)C3)C2 (stereo not drawn) [Compound 60, 4-(2-(2-((3'-(4-((2-carboxypropan-2-yl)amino)-4,5,6,7-tetrahydropyrazolo[1,5-a]pyridine-2-carboxamido)-2,2'-dichloro-[1,1'-biphenyl]-3-yl)carbamoyl)-1-methyl-6,7-dihydro-1H-imidazo[4,5-c]pyridin-5(4H)-yl)ethyl)bicyclo[2.2.1]heptane-1-carboxylic acid]",< 0.01
2,"COc1cc(-c2cccc(-c3cccc(NC(=O)c4cc5n(n4)CCCC5NCCO)c3Cl)c2Cl)cc(F)c1CNCCO (stereo not drawn) [Compound 124, N-(2,2'-dichloro-3""-fluoro-4""-(((2-hydroxyethyl)amino)methyl)-5""-methoxy-[1,1':3',1""-terphenyl]-3-yl)-4-((2-hydroxyethyl)amino)-4,5,6,7-tetrahydropyrazolo[1,5-a]pyridine-2-carboxamide]",< 0.01
3,"O=C(Nc1cccc(-c2cccc(NC(=O)c3cc4n(n3)CCCC4NCCO)c2Cl)c1Cl)c1ccc(CN2CC[C@@H](O)C2)cn1 (stereo partly drawn) [Compound 100, N-(2,2'-dichloro-3'-(5-(((R)-3-hydroxypyrrolidin-1-yl)methyl)picolinamido)-[1,1'-biphenyl]-3-yl)-4-((2-hydroxyethyl)amino)-4,5,6,7-tetrahydropyrazolo[1,5-a]pyridine-2-carboxamide]",< 0.01
4,"O=C(Nc1cccc(-c2cccc(NC(=O)c3cc4n(n3)CCCC4N3CC[C@@H](O)C3)c2Cl)c1Cl)c1ccc(CN2CC[C@@H](O)C2)cn1 (stereo partly drawn) [Compound 101, N-(2,2'-dichloro-3'-(5-(((R)-3-hydroxypyrrolidin-1-yl)methyl)picolinamido)-[1,1'-biphenyl]-3-yl)-4-((R)-3-hydroxypyrrolidin-1-yl)-4,5,6,7-tetrahydropyrazolo[1,5-a]pyridine-2-carboxamide]",0.01 to 0.1
5,"O=C(Nc1cccc(-c2cccc(Nc3nccc4cc(CN5CC[C@@H](O)C5)cnc34)c2Cl)c1Cl)c1cc2n(n1)CCCC2NC1CCC(O)CC1 (stereo partly drawn) [Compound 233, N-(2,2'-dichloro-3'-((3-(((R)-3-hydroxypyrrolidin-1-yl)methyl)-1,7-naphthyridin-8-yl)amino)-[1,1'-biphenyl]-3-yl)-4-((4-hydroxycyclohexyl)amino)-4,5,6,7-tetrahydropyrazolo[1,5-a]pyridine-2-carboxamideide]",0.01 to 0.1
6,"CC(=O)NCCNC1CCCn2nc(C(=O)Nc3cccc(-c4cccc(NC(=O)c5cc6n(n5)CCCC6NCCNC(C)=O)c4C)c3C)cc21 (stereo not drawn) [Compound 5, N,N'-(2,2'-dimethyl-[1,1'-biphenyl]-3,3'-diyl)bis(4-((2-acetamidoethyl)amino)-4,5,6,7-tetrahydropyrazolo[1,5-a]pyridine-2-carboxamide)]",< 0.01
7,"N#Cc1cc(CN2CC[C@@H](C(=O)O)C2)cc2nc(-c3cccc(-c4cccc(NC(=O)c5cc6n(n5)CCCC6NC[C@@H]5CCC(=O)N5)c4Cl)c3Cl)oc12 (stereo partly drawn) [Compound 68, (3R)-1-((7-cyano-2-(2,2'-dichloro-3'-(4-((((S)-5-oxopyrrolidin-2-yl)methyl)amino)-4,5,6,7-tetrahydropyrazolo[1,5-a]pyridine-2-carboxamido)-[1,1'-biphenyl]-3-yl)benzo[d]oxazol-5-yl)methyl)pyrrolidine-3-carboxylic acid]",< 0.01

# More lines, now with the values ahead:
row,IC50 [µM],Structure (SMILES)
1,< 0.01,"CN[C@H]1CCCn2nc(C(=O)Nc3cccc(-c4cccc(Nc5nccc6cc(CN7CC[C@@H](O)C7)cnc56)c4C)c3C)cc21 [Compound 346, (S)-N-(3'-((3-(((R)-3-hydroxypyrrolidin-1-yl)methyl)-1,7-naphthyridin-8-yl)amino)-2,2'-dimethyl-[1,1'-biphenyl]-3-yl)-4-(methylamino)-4,5,6,7-tetrahydropyrazolo[1,5-a]pyridine-2-carboxamide]"
2,0.01 to 0.1,"O=C(Nc1cccc(-c2cccc(Nc3nc(C(F)(F)F)nc4cc(CN5CC[C@@H](O)C5)cnc34)c2Cl)c1Cl)c1cc2n(n1)CCC[C@@H]2N1CC[C@@H](O)C1 [Compound 338, (S)-N-(2,2'-dichloro-3'-((7-(((R)-3-hydroxypyrrolidin-1-yl)methyl)-2-(trifluoromethyl)pyrido[3,2-d]pyrimidin-4-yl)amino)-[1,1'-biphenyl]-3-yl)-4-((R)-3-hydroxypyrrolidin-1-yl)-4,5,6,7-tetrahydropyrazolo[1,5-a]pyridine-2-carboxamide]"
3,< 0.01,"COc1nc(-c2cccc(-c3cccc(-c4cc5n(n4)CCCC5NCCO)c3Cl)c2Cl)cnc1CNC[C@@H]1CCC(=O)N1 (stereo partly drawn) [Compound 168, (5S)-5-((((5-(2,2'-dichloro-3'-(4-((2-hydroxyethyl)amino)-4,5,6,7-tetrahydropyrazolo[1,5-a]pyridin-2-yl)-[1,1'-biphenyl]-3-yl)-3-methoxypyrazin-2-yl)methyl)amino)methyl)pyrrolidin-2-one]"
4,< 0.01,"COc1cc(-c2cccc(-c3cccc(NC(=O)c4cc5n(n4)CCC[C@H]5NCC(=O)O)c3Cl)c2Cl)cc(F)c1CNCCO [Compound 246, (R)-2-((2-((2,2'-dichloro-3""-fluoro-4""-(((2-hydroxyethyl)amino)methyl)-5""-methoxy-[1,1':3',1""-terphenyl]-3-yl)carbamoyl)-4,5,6,7-tetrahydropyrazolo[1,5-a]pyridin-4-yl)amino)acetic acid]"
5,< 0.01,"CC(C)(N[C@@H]1CCCn2nc(C(=O)Nc3cccc(-c4cccc(Nc5nc(C(F)(F)F)nc6cccnc56)c4Cl)c3Cl)cc21)C(=O)O [Compound 276, (R)-2-((2-((2,2'-dichloro-3'-((2-(trifluoromethyl)pyrido[3,2-d]pyrimidin-4-yl)amino)-[1,1'-biphenyl]-3-yl)carbamoyl)-4,5,6,7-tetrahydropyrazolo[1,5-a]pyridin-4-yl)amino)-2-methylpropanoic acid]"
6,0.01 to 0.1,"CC(C)(N[C@@H]1CCCn2nc(C(=O)Nc3cccc(-c4cccc(Nc5nc(C(F)(F)F)nc6cc(CN7CC[C@@H](O)C7)cnc56)c4Cl)c3Cl)cc21)C(=O)O [Compound 341, 2-(((R)-2-((2,2'-dichloro-3'-((7-(((R)-3-hydroxypyrrolidin-1-yl)methyl)-2-(trifluoromethyl)pyrido[3,2-d]pyrimidin-4-yl)amino)-[1,1'-biphenyl]-3-yl)carbamoyl)-4,5,6,7-tetrahydropyrazolo[1,5-a]pyridin-4-yl)amino)-2-methylpropanoic acid]"
7,< 0.01,"O=C(O)CNC1CCCn2nc(C(=O)Nc3cccc(-c4cccc(NC(=O)c5ncc(CN6CC[C@@H](O)C6)cc5F)c4Cl)c3Cl)cc21 (stereo partly drawn) [Compound 204, 2-((2-((2,2'-dichloro-3'-(3-fluoro-5-(((R)-3-hydroxypyrrolidin-1-yl)methyl)picolinamido)-[1,1'-biphenyl]-3-yl)carbamoyl)-4,5,6,7-tetrahydropyrazolo[1,5-a]pyridin-4-yl)amino)acetic acid]"
8,< 0.01,"Cc1c(NC(=O)c2cc3n(n2)CCCC3N2CC[C@@H](O)C2)cccc1-c1cccc(Nc2nc(C(F)F)nc3cc(CN4CC[C@@H](O)C4)cnc23)c1C (stereo partly drawn) [Compound 131, N-(3'-((2-(difluoromethyl)-7-(((R)-3-hydroxypyrrolidin-1-yl)methyl)pyrido[3,2-d]pyrimidin-4-yl)amino)-2,2'-dimethyl-[1,1'-biphenyl]-3-yl)-4-((R)-3-hydroxypyrrolidin-1-yl)-4,5,6,7-tetrahydropyrazolo[1,5-a]pyridine-2-carboxamide]"
